Reference: patent US4585773A, “Isoindolinyl-alkyl-piperazines” (Bristol-Myers Company, priority 1984, dated 1986)

Key:
[1] = system: Spontaneously Hypertensive rat; assay: antihypertensive activity, Spontaneously Hypertensive Rat (Table II); type: in vivo; settings: for antihypertensive effect (in words): conclusion from Table II (SHR, and DOCA for Examples I-IV)
Summary of the method: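 Conditioned male SHR (300-400 g), prewarmed at 30° C and restrained; systolic blood pressure and heart rate by tail-cuff before and 2, 4 and 24 h after oral dosing in 0.25% Methocel (5 ml/kg). Values are changes from zero-hour readings; peak ΔBP above 20 mm Hg taken as activity.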

[2] = system: α blocking activity (norepinephrine); assay: in vivo α blocking activity, norepinephrine (NE) as α-agonist (Table III); design: species or system rat; settings: ED50 after/before drug
Protocol: In this example the compounds of Examples I (modified), II, III, V, VI, VII, VIII, IX and XI were tested in rats for in vivo α blocking activity according to methodology described at page 312 of Deitchman, et al., Journal of Pharmacological Methods, 3, 311-321 (1980). In this test phenylephrine (PE below) or norepinephrine (NE below) was administered as an α-agonist to the rats before and after dosing with the test drug and the average interpolated dose or PE/NE effecting a 50 mm Hg increase in mean arterial blood pressure was determined. Table III below records the results. In such Table, ED50 stands for such average interpolated dose and Average Dose Shift stands for the average ratio of ED50 after drug administration to ED50 before drug administration. The compound of Example I was tested as its monochloride 2-propanolate hydrate, i.e. as C22 H27 ClN4 O4 S.HCl 0.2(CH3)2 CHOH.0.15H2 O in Tests 1-5 and as the 3/4 mole hydrochloride, i.e. C22 H27 ClN 4 O4 S.3/4HCL in Tests 2a and 3a. The route was intravenous except in the case of the runs of Test Nos. 2a, 3, 3a, 26-29 the route was oral.

[3] = SHR, 3.0 mg/kg oral, as 3/4 mole hydrochloride
[4] = SHR, 30 mg/kg oral, as 3/4 mole hydrochloride
[5] = SHR, 3.0 to 30 mg/kg body weight

SMILES: COc1ccccc1N1CCN(CCCN2Cc3cc(Cl)c(S(N)(=O)=O)cc3C2=O)CC1 [Example I, 6-chloro-2,3-dihydro-2-[3-[4-(2-methoxyphenyl)-1-piperazinyl]propyl]-3-oxo-1H-isoindole-5-sulfonamide]
- ΔBP 4 hours ([1]; SHR, 0.3 mg/kg oral): -18 ± 6 mm Hg
- ΔHR 4 hours ([1]; SHR, 0.3 mg/kg oral): 11 ± 3 beats per minute
- ΔBP 4 hours ([1]; SHR, 3.0 mg/kg oral): -43 ± 7 mm Hg
- ΔHR 4 hours ([1]; SHR, 3.0 mg/kg oral): 10 ± 15 beats per minute
- ΔBP 2 hours [1, 3]: -23 ± 8 mm Hg
- ΔBP 4 hours [1, 3]: -10 ± 5 mm Hg
- ΔHR 2 hours [1, 3]: 8 ± 10 beats per minute
- ΔHR 4 hours [1, 3]: 14 ± 18 beats per minute
- ΔBP 2 hours ([1]; SHR, 30 mg/kg oral): -84 ± 10 mm Hg
- ΔHR 2 hours ([1]; SHR, 30 mg/kg oral): 16 ± 15 beats per minute
- ΔBP 2 hours [1, 4]: -97 ± 10 mm Hg
- ΔBP 4 hours [1, 4]: -52 ± 13 mm Hg
- ΔHR 2 hours [1, 4]: 16 ± 8 beats per minute
- ΔHR 4 hours [1, 4]: 2 ± 9 beats per minute
- systolic blood pressure / antihypertensive activity (in words) [1, 5]: dose-dependent decrease in systolic blood pressure
- time at which antihypertensive effect seen [1, 5]: about two
- antihypertensive effect (in words) [1]: good antihypertensive effect without significantly affecting heart rate
- Average Dose Shift ([2]; dose 0.3, intravenous): 3 ± 0.3
- Average Dose Shift ([2]; dose 1.0, intravenous): 11 ± 1

SMILES: COc1ccccc1N1CCN(CCN2Cc3cc(Cl)c(S(N)(=O)=O)cc3C2=O)CC1 [Example III, 6-Chloro-2,3-dihydro-2-[2-[4-(2-methoxyphenyl)-1-piperazinyl]ethyl]-3-oxo-1H-isoindole-5-sulfonamide]
- ΔBP 2 hours ([1]; SHR, 30 mg/kg oral): -47 ± 14 mm Hg
- ΔBP 4 hours ([1]; SHR, 30 mg/kg oral): -69 ± 20 mm Hg
- ΔHR 2 hours ([1]; SHR, 30 mg/kg oral): 10 ± 3 beats per minute
- ΔHR 4 hours ([1]; SHR, 30 mg/kg oral): 10 ± 10 beats per minute
- antihypertensive effect (in words) [1]: good antihypertensive effect without significantly affecting heart rate
